Reference: patent US20120034193A1, “TREATMENT OF NEUROTROPHIC FACTOR MEDIATED DISORDERS” (priority 2009, published 2012)

Legend:
Histamine H1 = molecular target: T1, Histamine H1 (Cavia porcellus, UniProt P31389); assay: Receptor binding assay; design: species or system Guinea Pig; conditions: sarsasapogenin 10 μM
T1 construct: host or cells: tissue or cell homogenate, not specified
Protocol: (§1) The receptor binding was investigated using the following method: Sarsasapogenin was incubated with tissue or cell homogenate that expressed the receptor of interest and a known concentration a radiolabelled compound with affinity for the receptor of interest. After the incubation period the non-bound radiolabelled compound was removed and the amount of specific binding was quantified. The amount of specific binding in the presence and absence of sarsasapogenin were compared and the percent inhibition of the binding of the radiolabelled compound by sarsasapogenin was calculated. The source of the receptor, the incubation conditions, the radiolabelled compound used varied depending on each specific assay.

[1] = Long term oral toxicity study, rats; assay type: in vivo; conditions: high doses, up to 26 week in rats
Muscarinic M5 = molecular target: T2, Muscarinic M5 (Homo sapiens, UniProt P08912); assay: Receptor binding assay; conditions: sarsasapogenin 10 μM
T2 construct: host or cells: tissue or cell homogenate, not specified
Protocol: as §1

Dopamine D1 = molecular target: T3, Dopamine D1 (Homo sapiens, UniProt P21728); assay: Receptor binding assay; conditions: sarsasapogenin 10 μM
T3 construct: host or cells: tissue or cell homogenate, not specified
T3 sequence (P21728 whole entry): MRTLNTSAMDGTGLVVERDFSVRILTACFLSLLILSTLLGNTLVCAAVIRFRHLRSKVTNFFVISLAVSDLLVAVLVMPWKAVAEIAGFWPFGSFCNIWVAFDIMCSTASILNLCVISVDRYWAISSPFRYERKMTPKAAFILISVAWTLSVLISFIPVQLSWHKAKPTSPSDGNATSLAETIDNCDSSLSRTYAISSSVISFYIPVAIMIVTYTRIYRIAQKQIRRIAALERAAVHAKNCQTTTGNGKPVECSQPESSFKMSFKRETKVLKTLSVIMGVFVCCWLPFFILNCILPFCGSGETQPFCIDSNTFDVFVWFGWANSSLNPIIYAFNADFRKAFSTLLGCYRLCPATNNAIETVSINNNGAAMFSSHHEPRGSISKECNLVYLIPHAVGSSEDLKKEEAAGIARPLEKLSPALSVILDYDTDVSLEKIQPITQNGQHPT
Protocol: as §1

Muscarinic M4 = molecular target: T4, Muscarinic M4 (Homo sapiens, UniProt P08173); assay: Receptor binding assay; conditions: sarsasapogenin 10 μM
T4 construct: host or cells: tissue or cell homogenate, not specified
T4 sequence (P08173 whole entry): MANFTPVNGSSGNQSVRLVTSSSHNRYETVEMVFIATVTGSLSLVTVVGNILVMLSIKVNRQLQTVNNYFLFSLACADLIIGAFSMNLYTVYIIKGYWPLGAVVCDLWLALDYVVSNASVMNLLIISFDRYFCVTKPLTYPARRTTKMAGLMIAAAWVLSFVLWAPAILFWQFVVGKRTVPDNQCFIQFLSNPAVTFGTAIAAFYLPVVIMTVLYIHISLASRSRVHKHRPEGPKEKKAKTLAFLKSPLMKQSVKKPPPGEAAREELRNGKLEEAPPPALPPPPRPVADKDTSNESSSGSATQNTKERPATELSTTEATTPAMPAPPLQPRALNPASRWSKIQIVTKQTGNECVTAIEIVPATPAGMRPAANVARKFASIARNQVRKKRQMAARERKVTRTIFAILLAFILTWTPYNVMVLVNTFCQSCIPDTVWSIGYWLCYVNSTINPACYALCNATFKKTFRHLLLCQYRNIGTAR
Protocol: as §1

Muscarinic M1 = molecular target: T5, Muscarinic M1 (Homo sapiens, UniProt P11229); assay: Receptor binding assay; conditions: sarsasapogenin 10 μM
T5 construct: host or cells: tissue or cell homogenate, not specified
Protocol: as §1

Glucocorticoid = molecular target: T6, Glucocorticoid (Homo sapiens, UniProt P04150); assay: Receptor binding assay; conditions: sarsasapogenin 10 μM
T6 construct: host or cells: tissue or cell homogenate, not specified
T6 sequence (P04150 whole entry): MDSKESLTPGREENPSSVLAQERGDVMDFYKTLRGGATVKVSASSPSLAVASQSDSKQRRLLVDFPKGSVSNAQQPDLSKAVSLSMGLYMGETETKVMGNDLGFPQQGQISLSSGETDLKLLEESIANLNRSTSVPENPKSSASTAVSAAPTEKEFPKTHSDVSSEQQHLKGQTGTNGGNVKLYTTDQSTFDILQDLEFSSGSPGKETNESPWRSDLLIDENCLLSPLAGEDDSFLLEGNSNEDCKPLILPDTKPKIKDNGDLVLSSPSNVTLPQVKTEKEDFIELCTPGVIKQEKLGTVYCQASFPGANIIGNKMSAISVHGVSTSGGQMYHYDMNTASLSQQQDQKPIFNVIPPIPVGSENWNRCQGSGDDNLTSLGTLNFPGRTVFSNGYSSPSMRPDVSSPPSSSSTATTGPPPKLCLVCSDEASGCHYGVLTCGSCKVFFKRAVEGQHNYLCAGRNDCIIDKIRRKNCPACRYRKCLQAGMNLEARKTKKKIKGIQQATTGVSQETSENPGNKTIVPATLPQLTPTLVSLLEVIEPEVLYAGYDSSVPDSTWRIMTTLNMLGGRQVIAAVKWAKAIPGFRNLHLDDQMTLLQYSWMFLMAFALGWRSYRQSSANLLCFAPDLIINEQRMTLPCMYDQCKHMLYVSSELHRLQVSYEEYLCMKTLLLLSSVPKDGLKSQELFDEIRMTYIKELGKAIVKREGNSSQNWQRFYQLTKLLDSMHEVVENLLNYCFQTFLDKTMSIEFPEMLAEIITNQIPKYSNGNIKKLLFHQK
Protocol: as §1

Testosterone = Testosterone (Rattus norvegicus, UniProt P15207); assay: Receptor binding assay; conditions: sarsasapogenin 10 μM
Protocol: as §1

Muscarinic M3 = molecular target: T7, Muscarinic M3 (Homo sapiens, UniProt P20309); assay: Receptor binding assay; conditions: sarsasapogenin 10 μM
T7 construct: host or cells: tissue or cell homogenate, not specified
T7 sequence (P20309 whole entry): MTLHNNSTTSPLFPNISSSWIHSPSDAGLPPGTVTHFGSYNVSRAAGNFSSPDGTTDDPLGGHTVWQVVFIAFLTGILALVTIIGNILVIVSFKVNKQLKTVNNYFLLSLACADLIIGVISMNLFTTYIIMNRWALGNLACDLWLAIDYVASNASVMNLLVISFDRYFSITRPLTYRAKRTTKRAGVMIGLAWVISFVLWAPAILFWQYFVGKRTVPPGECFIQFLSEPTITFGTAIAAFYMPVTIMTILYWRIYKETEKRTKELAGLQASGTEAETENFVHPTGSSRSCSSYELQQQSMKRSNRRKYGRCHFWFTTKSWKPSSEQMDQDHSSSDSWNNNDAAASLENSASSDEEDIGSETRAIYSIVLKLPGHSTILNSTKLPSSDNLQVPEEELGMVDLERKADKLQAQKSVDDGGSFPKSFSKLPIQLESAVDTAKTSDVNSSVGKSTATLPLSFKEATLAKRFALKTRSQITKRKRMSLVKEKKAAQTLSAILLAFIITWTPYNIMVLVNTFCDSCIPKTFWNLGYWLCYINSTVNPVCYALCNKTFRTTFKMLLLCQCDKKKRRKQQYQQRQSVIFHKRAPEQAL
Protocol: as §1

Muscarinic M2 = molecular target: T8, Muscarinic M2 (Homo sapiens, UniProt P08172); assay: Receptor binding assay; conditions: sarsasapogenin 10 μM
T8 construct: host or cells: tissue or cell homogenate, not specified
T8 sequence (P08172 whole entry): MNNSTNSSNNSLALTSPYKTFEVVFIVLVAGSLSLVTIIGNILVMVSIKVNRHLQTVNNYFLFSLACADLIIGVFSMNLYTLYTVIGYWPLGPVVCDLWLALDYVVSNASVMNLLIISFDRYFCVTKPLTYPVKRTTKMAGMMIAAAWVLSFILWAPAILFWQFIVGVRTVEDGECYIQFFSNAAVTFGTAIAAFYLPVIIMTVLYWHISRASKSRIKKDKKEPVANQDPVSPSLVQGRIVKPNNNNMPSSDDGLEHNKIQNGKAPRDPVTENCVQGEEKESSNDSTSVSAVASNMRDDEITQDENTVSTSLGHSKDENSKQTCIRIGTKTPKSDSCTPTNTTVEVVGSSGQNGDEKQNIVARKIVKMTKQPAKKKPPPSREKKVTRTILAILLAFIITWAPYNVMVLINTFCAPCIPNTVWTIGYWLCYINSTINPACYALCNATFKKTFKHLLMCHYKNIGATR
Protocol: as §1

[2] = molecular target: 5-Hydroxytryptamine, 5-HT3 (Homo sapiens, UniProt P46098); assay: Binding assay; conditions: smilagenin 1 μM
Protocol: as §1
(§2) Using the same methods as described above, the binding of smilagenin (1 μM) to the receptors listed in Table 2 below, and the effect of smilagenin on the activity of the enzymes listed in Table 2 below, were investigated.

Neuromedin U MNU2 = Neuromedin U MNU2 (Homo sapiens, UniProt Q9GZQ4); assay: Binding assay; conditions: smilagenin 1 μM
Neuromedin U MNU2, sequence (Q9GZQ4 whole entry): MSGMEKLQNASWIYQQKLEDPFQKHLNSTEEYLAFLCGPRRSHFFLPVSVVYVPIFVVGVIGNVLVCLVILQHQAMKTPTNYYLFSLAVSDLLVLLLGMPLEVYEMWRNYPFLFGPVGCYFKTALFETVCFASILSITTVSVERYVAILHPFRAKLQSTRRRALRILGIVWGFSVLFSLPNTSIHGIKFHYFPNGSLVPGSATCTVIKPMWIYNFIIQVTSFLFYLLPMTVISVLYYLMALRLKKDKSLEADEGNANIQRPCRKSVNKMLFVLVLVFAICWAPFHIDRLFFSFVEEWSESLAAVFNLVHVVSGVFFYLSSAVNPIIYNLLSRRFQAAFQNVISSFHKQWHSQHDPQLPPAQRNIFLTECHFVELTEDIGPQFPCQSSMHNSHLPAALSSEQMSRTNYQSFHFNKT
Protocol: as §1, §2

Adrenergic β2 = Adrenergic β2 (Homo sapiens, UniProt P07550); assay: Binding assay; conditions: smilagenin 1 μM
Adrenergic β2, sequence (P07550 whole entry): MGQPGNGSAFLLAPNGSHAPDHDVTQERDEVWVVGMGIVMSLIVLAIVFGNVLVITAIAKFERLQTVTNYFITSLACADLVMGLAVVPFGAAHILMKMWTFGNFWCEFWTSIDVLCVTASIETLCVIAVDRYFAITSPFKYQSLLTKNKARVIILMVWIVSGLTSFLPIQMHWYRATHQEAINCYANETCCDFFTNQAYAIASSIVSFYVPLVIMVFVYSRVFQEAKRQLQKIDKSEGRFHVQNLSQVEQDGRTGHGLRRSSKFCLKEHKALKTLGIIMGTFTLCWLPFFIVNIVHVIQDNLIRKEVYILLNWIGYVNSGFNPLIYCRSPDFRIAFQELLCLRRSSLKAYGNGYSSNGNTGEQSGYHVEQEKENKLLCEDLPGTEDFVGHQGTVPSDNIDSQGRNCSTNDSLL
Protocol: as §1, §2

Transporter, Monoamine = assay: Binding assay; design: species or system Rabbit; conditions: smilagenin 1 μM
Protocol: as §1, §2

BDNF = assay: Striatal BDNF in MPTP-lesioned mice (ELISA); assay type: in vivo, C57b1/6 RJ mice; conditions: smilagenin 10 mg/kg/day oral, 60 days, striatum
Protocol: Seven-week old male C57b1/6 RJ mice (C57 mice) received daily injections 1-methyl-4-phenyl-1,2,3,6-tetrahydropyridine (MPTP, 25 mg/kg/day, i.p., for 5 consecutive days) and oral administration of smilagenin (10 mg/kg/day) or vehicle (hydroxylpropylmethylcellulose, HPMC 0.5% w/v containing tween-80 0.2% v/v) for 60 days after which time their brains were removed for quantification of striatal levels of GDNF and BDNF using an ELISA and of dopamine transporter (DAT) levels using [I^125]-RTI binding. DAT is a marker for neuronal damage to dopaminergic neurones.

[3] = molecular target: Nicotinic Acetylcholine α7, Bungarotoxin (Rattus norvegicus, UniProt Q05941); assay: Binding assay; conditions: smilagenin 1 μM
Nicotinic Acetylcholine α7, Bungarotoxin, sequence (Q05941 23-502): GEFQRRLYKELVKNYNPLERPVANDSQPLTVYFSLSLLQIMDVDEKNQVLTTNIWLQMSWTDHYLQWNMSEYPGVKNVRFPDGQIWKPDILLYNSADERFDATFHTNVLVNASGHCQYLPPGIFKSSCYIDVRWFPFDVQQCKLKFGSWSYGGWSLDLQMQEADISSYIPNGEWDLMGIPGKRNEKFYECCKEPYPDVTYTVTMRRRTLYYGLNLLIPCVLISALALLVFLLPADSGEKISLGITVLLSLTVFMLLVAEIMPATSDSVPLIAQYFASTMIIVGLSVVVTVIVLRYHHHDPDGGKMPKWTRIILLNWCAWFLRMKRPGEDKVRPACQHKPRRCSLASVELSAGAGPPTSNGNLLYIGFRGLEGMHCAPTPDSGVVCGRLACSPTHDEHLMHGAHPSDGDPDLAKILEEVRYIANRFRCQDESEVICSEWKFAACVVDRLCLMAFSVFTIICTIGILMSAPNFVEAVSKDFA

[4] = Long term oral toxicity study, mice; assay type: in vivo; conditions: high doses, up to 52 weeks in mice
BDNF mRNA [5] = assay: BDNF mRNA in rat cortical neurones pre-incubated 48 h then exposed to β-amyloid; assay type: cell-based; conditions: 10 μM pre-incubation 48 h
Protocol: Rat cortical neurones were cultured by modification of a method previously described (Eckenstein and Sofroniew, Journal of Neuroscience, 1983, 3, pp. 2286-2291). On day 8, the culture medium was changed to a medium containing vehicle (DMSO, 0.5%) or smilagenin (10 μM). On day 10, rat primary cortical neurones were exposed to β-amyloid (10 μg/ml) for up to 48 h at 37° C. and the level of BDNF mRNA in the cortical neurones was assessed by rt RT-PCR over the following 48 h.

BDNF mRNA [6] = assay: BDNF mRNA expression in rat cortical neurones after 48 h incubation (rt RT-PCR); assay type: cell-based; conditions: 10 μM, mean ± s.e.mean, n = 3
Protocol: In a separate experiment, rat cortical neurones were cultured by modification of a method previously described (Eckenstein and Sofroniew, Journal of Neuroscience, 1983, 3, pp. 2286-2291). On day 8, the culture medium was changed to a medium containing vehicle (DMSO, 0.5%) or smilagenin (10 μM) for 48 h and the level of BDNF mRNA in the cortical neurones was assessed by rt RT-PCR.

[7] = test system: dopamine transporter (DAT); assay: Striatal DAT level in control and MPTP mice, 61 or 71 days of dosing; assay type: in vivo, C57 mice; conditions: 10 mg/kg/day oral
Protocol: In a similar experiment, 10-week old male C57 mice received daily injections of saline or MPTP (25 mg/kg/day, i.p.) for 5 consecutive days (days 1-5) and oral administration of smilagenin (10 mg/kg/day) or vehicle (HPMC 0.5% w/v containing tween-80 0.2% v/v) for 61 days (days […]) or 71 days (days 2-72) after which time their brains were removed for quantification of striatal levels of DAT, marker of the extent of neuronal damage to dopaminergic neurones

[8] = test system: Rat dopaminergic neurones; assay: TH positive neurones and neurite outgrowth after MPP+ exposure; assay type: cell-based; conditions: 10 μM from day 6, MPP+ 2 μM day 8 for 48 h
Protocol: Rat dopaminergic neurones were prepared using a slightly modified previously described method (Brouard et al., Journal of Neuroscience, 1992, 12, pp. 1409-1415). On day 6 the culture medium was replaced with fresh medium or fresh medium containing smilagenin (10 μM) or vehicle (DMSO, 0.25%). On day 8, MPP^+ (2 μM) or vehicle (saline) was added and 48 h later dopaminergic neurones were stained and the concentration of GDNF in the culture medium, neuronal damage and neurite outgrowth were assessed.

T1 sequence (P31389 whole entry): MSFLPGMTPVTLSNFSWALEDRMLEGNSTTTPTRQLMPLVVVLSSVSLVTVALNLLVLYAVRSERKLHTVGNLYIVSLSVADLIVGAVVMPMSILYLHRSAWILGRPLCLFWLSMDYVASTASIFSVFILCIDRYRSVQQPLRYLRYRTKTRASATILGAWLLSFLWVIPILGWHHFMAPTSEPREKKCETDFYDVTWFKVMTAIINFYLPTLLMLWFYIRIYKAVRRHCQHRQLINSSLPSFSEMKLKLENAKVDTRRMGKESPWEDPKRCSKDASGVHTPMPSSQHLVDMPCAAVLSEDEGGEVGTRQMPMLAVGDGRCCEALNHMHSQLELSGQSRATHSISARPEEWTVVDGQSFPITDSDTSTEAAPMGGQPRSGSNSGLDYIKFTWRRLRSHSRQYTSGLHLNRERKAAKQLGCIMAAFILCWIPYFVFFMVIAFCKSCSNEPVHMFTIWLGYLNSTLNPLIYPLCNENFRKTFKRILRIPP

With `C[C@H]1CC[C@@]2(OC1)O[C@H]1C[C@H]3[C@@H]4CC[C@@H]5C[C@@H](O)CC[C@]5(C)[C@H]4CC[C@]3(C)[C@H]1[C@@H]2C` [Sarsasapogenin, sarsasapogenin] the “Effect (%)” value (Histamine H1) was “NS (NS = No significant response. Significance was taken as ≧30% stimulation or inhibition)”, the Long term toxicity [1] was “without showing any signs of toxicity or adverse events” and the “Effect (%)” value (Muscarinic M5) was “NS (NS = No significant response. Significance was taken as ≧30% stimulation or inhibition)”. The “Effect (%)” value (Dopamine D1) was “NS (NS = No significant response. Significance was taken as ≧30% stimulation or inhibition)”, the “Effect (%)” value (Muscarinic M4) was “NS (NS = No significant response. Significance was taken as ≧30% stimulation or inhibition)” and the “Effect (%)” value (Muscarinic M1) was “NS (NS = No significant response. Significance was taken as ≧30% stimulation or inhibition)”. For the same molecule, the “Effect (%)” value (Glucocorticoid) was “NS (NS = No significant response. Significance was taken as ≧30% stimulation or inhibition)”, the “Effect (%)” value (Testosterone) was “NS (NS = No significant response. Significance was taken as ≧30% stimulation or inhibition)” and the “Effect (%)” value (Muscarinic M3) was “NS (NS = No significant response. Significance was taken as ≧30% stimulation or inhibition)”. The “Effect (%)” value (Muscarinic M2) was “NS (NS = No significant response. Significance was taken as ≧30% stimulation or inhibition)”.

For `C[C@@H]1CC[C@@]2(OC1)O[C@H]1C[C@H]3[C@@H]4CC[C@@H]5C[C@@H](O)CC[C@]5(C)[C@H]4CC[C@]3(C)[C@H]1[C@@H]2C` [Smilagenin, smilagenin], the “Effect (%)” value [2] was “NS (NS = No significant response. Significance was taken as ≧30% stimulation or inhibition)”, the “Effect (%)” value (Neuromedin U MNU2) was “NS (NS = No significant response. Significance was taken as ≧30% stimulation or inhibition)” and the “Effect (%)” value (Adrenergic β2) was “NS (NS = No significant response. Significance was taken as ≧30% stimulation or inhibition)”. For the same molecule, the “Effect (%)” value (Transporter, Monoamine) was “NS (NS = No significant response. Significance was taken as ≧30% stimulation or inhibition)”, the “BDNF (% increase above MPTP mice)” value (BDNF) was 164 ± 53 % and the “BDNF (pg/mg tissue)” value (BDNF) was 46.91 ± 9.97 pg/mg tissue. For the same molecule, the “Effect (%)” value [3] was “NS (NS = No significant response. Significance was taken as ≧30% stimulation or inhibition)”, the Long term toxicity [4] was “without showing any signs of toxicity or adverse events” and the “Relative amount of BDNF mRNA (% of control at 0 h)” value (BDNF mRNA [5]; β-amyloid 10 μg/ml exposure 6 h) was 108.0 ± 5.2 % of control at 0 h. For the same molecule, the “Relative amount of BDNF mRNA (% of control at 0 h)” value (BDNF mRNA [5]; β-amyloid 10 μg/ml exposure 24 h) was 321.5 ± 54.2 % of control at 0 h, the “Relative amount of BDNF mRNA (% of control at 0 h)” value (BDNF mRNA [5]; β-amyloid 10 μg/ml exposure 48 h) was 334.6 ± 48.1 % of control at 0 h and the “Relative amount of BDNF mRNA (% of control)” value (BDNF mRNA [6]) was 103.9 ± 6.5 % of control. The “DAT level ([I^125]-RTI binding in the striatum; nCi/g protein)” value (from here on “DAT level”) ([7]; MPTP mice, days 2-72) was 256.2 ± 21.4^++++ nCi/g protein, the “DAT level” value ([7]; MPTP mice, days 12-72) was 280.3 ± 18.3^++++ nCi/g protein and the “DAT level” value ([7]; control mice (no MPTP), days 2-72) was 406.2 ± 21.8 nCi/g protein. The “Neurite outgrowth (% of control)” value [8] was 62.1 ± 7.0 % of control and the “Number of TH positive neurones per field (% of control)” value [8] was 57.1 ± 5.2 % of control.
